Results reported in US5106853A, “Oxadiazole and its salts, their use in treating dementia” (Merck Sharp & Dohme, Ltd., priority 1989, dated 1992).
Where two headings read alike, the source gives them in different places.

Tests used:
[1] = target: muscarinic acetylcholine receptors; experiment: NMS/OXO-M displacement: [3H]NMS and [3H]OXO-M Kapp (method of Br. J. Pharmacol. (1988), 93, 437-445); type: binding; details: for Kd: Kapp = corrected dissociation constant allowing for ligand occupancy
Method: A. By the method disclosed in Br. J. Pharmacol. (1988), 93, 437-445 were determined the NMS/OXO-M data for the compound (I): [^3 H]NMS Kapp =0.025 μM; [^3 H]OXO-M Kapp =0.0017 μM; ratio NMS/OXO-M=15; (Kapp =corrected dissociation constant allowing for ligand occupancy).

M-1 receptor = target: T1, M-1 receptor (Rattus norvegicus, UniProt P08482); experiment: Functional selectivity, rat superior cervical ganglion (methods of J. Med. Chem. (1987), 30, 969-975); type: cell-based; details: mean ± S.D. (n = 5)
T1 construct: from tissue
T1 sequence (P08482 1-460): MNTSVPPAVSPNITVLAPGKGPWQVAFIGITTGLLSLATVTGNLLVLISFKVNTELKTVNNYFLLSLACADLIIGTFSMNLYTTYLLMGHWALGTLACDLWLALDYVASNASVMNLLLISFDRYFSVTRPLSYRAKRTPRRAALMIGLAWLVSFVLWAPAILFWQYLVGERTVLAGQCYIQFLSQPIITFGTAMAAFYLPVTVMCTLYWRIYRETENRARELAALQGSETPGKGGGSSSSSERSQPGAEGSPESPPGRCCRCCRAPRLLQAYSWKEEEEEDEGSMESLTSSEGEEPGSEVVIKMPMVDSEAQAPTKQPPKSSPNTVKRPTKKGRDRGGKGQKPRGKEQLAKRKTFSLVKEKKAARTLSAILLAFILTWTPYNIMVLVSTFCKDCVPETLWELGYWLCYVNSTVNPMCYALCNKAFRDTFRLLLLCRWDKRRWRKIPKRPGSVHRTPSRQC
Method: (§1) B. By the methods disclosed in J. Med. Chem. (1987), 30, 969-975 was determined the functional selectivity of compound (I): […]

M-2 receptor = target: T2, M-2 receptor (Cavia porcellus, UniProt H0VRN8); experiment: Functional selectivity, guinea-pig atrium (methods of J. Med. Chem. (1987), 30, 969-975); type: cell-based
T2 construct: from tissue; host or cells: guinea-pig atrium
T2 sequence (H0VRN8 1-466): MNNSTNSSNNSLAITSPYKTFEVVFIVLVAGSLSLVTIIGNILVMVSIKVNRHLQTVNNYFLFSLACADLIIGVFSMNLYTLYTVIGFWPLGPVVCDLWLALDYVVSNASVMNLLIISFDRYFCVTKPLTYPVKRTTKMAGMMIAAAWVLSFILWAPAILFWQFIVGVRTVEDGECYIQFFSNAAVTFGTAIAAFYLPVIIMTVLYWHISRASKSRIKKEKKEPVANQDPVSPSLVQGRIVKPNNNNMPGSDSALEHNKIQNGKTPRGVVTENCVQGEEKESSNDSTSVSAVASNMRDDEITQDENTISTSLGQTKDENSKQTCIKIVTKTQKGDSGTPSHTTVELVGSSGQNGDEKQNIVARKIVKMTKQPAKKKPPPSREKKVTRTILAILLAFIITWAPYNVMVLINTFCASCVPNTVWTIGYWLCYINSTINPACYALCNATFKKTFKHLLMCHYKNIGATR
Method: as §1

M-3 receptor = target: T3, M-3 receptor (Cavia porcellus, UniProt H0W1Z3); experiment: Functional selectivity, guinea-pig myenteric plexus/longitudinal muscle strip (methods of J. Med. Chem. (1987), 30, 969-975); type: cell-based
T3 construct: from tissue; host or cells: guinea-pig myenteric plexus/longitudinal muscle strip
T3 sequence (H0W1Z3 1-590): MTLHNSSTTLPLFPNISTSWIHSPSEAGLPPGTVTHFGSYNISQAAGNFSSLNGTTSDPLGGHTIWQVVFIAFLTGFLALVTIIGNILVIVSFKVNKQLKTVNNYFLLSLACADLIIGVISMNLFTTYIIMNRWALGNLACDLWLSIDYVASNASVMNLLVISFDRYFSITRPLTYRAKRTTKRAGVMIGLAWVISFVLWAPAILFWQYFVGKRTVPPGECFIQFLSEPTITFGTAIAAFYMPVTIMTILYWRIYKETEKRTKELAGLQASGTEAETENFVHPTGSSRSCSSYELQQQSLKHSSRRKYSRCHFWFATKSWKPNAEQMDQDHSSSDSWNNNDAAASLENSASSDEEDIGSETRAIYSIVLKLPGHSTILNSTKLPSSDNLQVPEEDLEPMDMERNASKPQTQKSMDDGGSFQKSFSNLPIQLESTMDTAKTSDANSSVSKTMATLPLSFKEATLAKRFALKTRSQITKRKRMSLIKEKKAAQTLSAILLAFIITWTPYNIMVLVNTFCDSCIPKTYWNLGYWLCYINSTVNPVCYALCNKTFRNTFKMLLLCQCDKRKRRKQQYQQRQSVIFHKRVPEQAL
Method: as §1

[2] = relative maximum, read-out: Rel. Max.

## C1CC1c1noc([C@H]2CN3CC[C@H]2C3)n1 [compound (I), (3R, 4R)-3-(3-cyclopropyl-1,2,4-oxadiazol-5-yl)-1-azabicyclo[2.2.1]heptane]
[1]; radioligand [3H]NMS, read-out: [3H]NMS Kapp
  Kd: 25 nM
[1]; radioligand [3H]OXO-M, read-out: [3H]OXO-M Kapp
  Kd: 1.7 nM
[1]; ratio of Kapp values
  ratio NMS/OXO-M: 15
M-1 receptor
  EC50: 63.1 nM
M-1 receptor; [2]
  Emax: 55 ± 10%
M-2 receptor; 95% confidence limits 7.80-8.20, n = 10, slope of Arunlakshana-Schild plot not significantly different from unity, read-out: pA2 (converted)
  Kb: 10 nM
M-2 receptor; [2]
  Emax: 0%
M-3 receptor; 95% confidence limits 7.90-8.40, n = 12, slope of Arunlakshana-Schild plot not significantly different from unity, read-out: pA2 (converted)
  Kb: 7.08 nM
M-3 receptor; [2]
  Emax: 0%
